Experiment [1] relates to rabbit corneal endothelial cells. The experiment can be described thus: Cell shape morphometry of cultured rabbit corneal endothelial cells (Example 1). The note with it: for cell shape at confluence: cells cultured seven days in the presence of the agent; for distribution of major axes (Amax): versus control; for rank order of potency on corneal endothelial cell shape: cyclooxygenase inhibitors, with EGF; for potentiation of EGF-induced elongation: 10^-5 M (equimolar), in presence of EGF.

For experiment [2], the system named is cultured rabbit corneal endothelium. Description: Pharmacological regulation of morphology and mitosis in cultured rabbit corneal endothelium. It is filed as cell-based.
Experiment [3] deals with cultured corneal endothelial cells. The settings on record: control cultures and cultures with EGF added.
Experiment [4] deals with Corneal endothelial cells. The experiment can be described thus: f-actin labelling with rhodamine labelled phallacidin in cultured corneal endothelial cells. The settings on record: 1 week in culture.
The subject of experiment [5] is endothelium of excised corneas. The experiment can be described thus: Cell migration near the wound boundary in excised corneas. It is filed as cell-based, New Zealand white rabbits. The settings on record: EGF 10 ng/ml, indomethacin 1 μM in M-K medium.
The test system of the next experiment is cat corneal endothelium. The note with it: 22° C.; cited from earlier work.
The test system of experiment [6] is most cell culture systems. The note with it: cited from earlier work.
Experiment [7] deals with endothelium of excised corneas. Description: Shape of the cells near the wound boundary in excised corneas.
In experiment [8] the test system is endothelium of excised corneas. The experiment can be described thus: Endothelial wound area / closure in excised corneas (specular microscopy).
Experiment [9] deals with Corneal endothelial cells. The experiment can be described thus: Transmission electron microscopy of pharmacologically modulated endothelial phenotypes. The settings on record: treated cultures.
The mark [10] stands for this setting: agent added to TPA containing medium.

“Also recorded” adds a separate entry of the source. Where two headings read alike, the source gives them in different places. Some results are limits rather than exact numbers.

As for `CCCCC[C@H](O)/C=C/[C@@H]1[C@@H](C/C=C\CCCC(=O)O)[C@@H](O)C[C@H]1O` [pgF2α], the “effect on the elongation of Amax produced by EGF and indomethacin” value in [1] (increasing concentrations added to cells grown with EGF and indomethacin) is recorded as “has no effect”.

`COc1ccc2c(c1)c(CC(=O)O)c(C)n2C(=O)c1ccc(Cl)cc1` [indomethacin]: in experiment [2] (setting [10]), the “effect on TPA-induced elongation” value is “marked enhancement of cellular elongation” and the “effect on cell density / mitogenic response to TPA” value is “had no effect on final cell density”. Besides, the “synthesis of pgE2” value in experiment [3] is on record as “totally inhibits”. For the same compound, in [1], the “cell shape at confluence” value is on record as “elongated at confluence with a stellate shape” and the “rank order of potency on corneal endothelial cell shape” value (“rank order of potency” for short) is on record as “indomethacin<suprofen<flurbiprofen”. In experiment [1] (cultured with agent), the “distribution of major axes (Amax)” value was “increases”. For the same compound, the f-actin staining pattern result in experiment [4] was “diffuse reticular staining throughout the cytoplasm”.

On to `CCCCCCCCCCCCCC(=O)O[C@@H]1[C@@H](C)[C@@]2(O)[C@@H](C=C(CO)C[C@]3(O)C(=O)C(C)=C[C@@H]23)[C@H]2C(C)(C)[C@]12OC(C)=O` [TPA], for which, in [2], the “cell density / mitosis, agent alone” value is on record as “increased cell density” and the “cell shape / elongation, agent alone” value is listed as “caused elongation”.

For `C[C@@H]1C[C@H]2[C@@H]3CCC4=CC(=O)C=C[C@]4(C)[C@@]3(F)[C@@H](O)C[C@]2(C)[C@@]1(O)C(=O)CO` [dexamethasone], the “potentiation of EGF-induced elongation” value in experiment [1] was “has no effect”.

Cholera toxin: in experiment [2], the “cell shape / elongation, agent alone” value is “had no effect on cell shape”; the “effect on EGF and INDO-induced elongation” value is “antagonized”; the “effect on EGF-induced elongation” value is “EGF-induced elongation did not occur”; the “effect on TPA-induced elongation” value is recorded as “did not prevent elongation”. In experiment [2], the “effect on cell density / mitogenic response to TPA” value is given as “potentiate the mitogenic response”; the “effect on cell density / mitosis in presence of EGF and INDO” value is “without preventing increased cell density”; the “effect on the mitogenic effect of EGF” value is “potentiated”.

On to Pertussis toxin, for which, in experiment [2], the “cell density / mitosis, agent alone” value is on record as “had no effect on either parameter”; the “cell density in combination with EGF or INDO” value is reported as “without significantly altering cell density”; the “cell shape / elongation, agent alone” value was “had no effect on either parameter”; the “cell shape in combination with EGF or INDO” value was “restored polygonal cell shape”.

As for `CC(C(=O)O)c1ccc(-c2ccccc2)c(F)c1` (stereo not shown) [flurbiprofen], the “rank order of potency” value in experiment [1] is “indomethacin<suprofen<flurbiprofen”.

For the compound epidermal growth factor [EGF], the “migration of cells near the wound boundary compared with the control group” value in [5] is “migrated significantly more; also recorded: significantly increased migration”. Besides, the “time for association to be complete” value with cat corneal endothelium is recorded as “approximately 120 minutes”. In addition, in [6], the “time at which DNA synthesis reaches a maximum” value is listed as “about 22 hours” and the “time at which increased DNA synthesis begins after addition” value is “approximately 15 hours”. For the same compound, the “synthesis of pgE2” value in experiment [3] was “unaffected”. The “relative average percent change of the shape factor, difference from control (FIG. 3)” value in experiment [7] (EGF+indomethacin at 50, 100, 150 minutes, EGF at 100, 150 minutes, p<0.001) is “significantly different from the control group”. Moreover, the “time of the peak of the shape change” value in experiment [7] (one cornea of each group, control 200 minutes) came out at 150 min. Further, the “wound closure time compared with the control group” value in experiment [8] (EGF 10 ng/ml, indomethacin 1 μM in M-K medium) is reported as “shortened the wound closure time”. Besides, the “time of maximum wound area after wounding” value in experiment [8] (EGF 10 ng/ml, indomethacin 1 μM in M-K medium, control 20 minutes) came out at 10 min. Besides, the “time for wound area to decrease to 50% of the original size” value in experiment [8] (EGF 10 ng/ml, indomethacin 1 μM in M-K medium, control about 240 minutes) is at most 120 min. Besides, the “time for wounds to close to 80% of the original size” value in experiment [8] (after wounding, EGF treated) is at most 250 min. In addition, in experiment [1] (at confluence, versus control conditions), the cell density entry was “little or no effect”. In addition, the “cell shape at confluence” value in [1] was “spindle-shaped at confluence”. Besides, the “distribution of major axes (Amax)” value in experiment [1] (cultured with agent) is given as “significantly greater distribution of major axes”. Further, the “ratio Per/Amax” value in experiment [1] (cultured with agent, perfectly round cell 3.14) was “decreases significantly”. For the same compound, in experiment [9], the “ultrastructure by transmission electron microscopy” value is “Junctional complexes were absent”.

Take `C=C[C@@]1(C)CC(=O)[C@]2(O)[C@@]3(C)[C@@H](O)CCC(C)(C)[C@@H]3[C@H](O)[C@H](OC(C)=O)[C@@]2(C)O1` [Forskolin]: in [2] (agent added with EGF and INDO), the “effect on EGF and INDO-induced elongation” value is recorded as “prevented”; the “effect on cell density / mitosis in presence of EGF and INDO” value is reported as “inhibited endothelial mitosis”.

For the compound `CC(C(=O)O)c1ccc(C(=O)c2cccs2)cc1` (stereo not shown) [suprofen], in [1], the “potentiation of EGF-induced elongation” value was “Potentiation of EGF-induced elongation also occurs” and the “rank order of potency” value is on record as “indomethacin<suprofen<flurbiprofen”.
